Experimental data reported in patent publication US20210308207A1, “COMPOUNDS COMPRISING A LINKER FOR INCREASING TRANSCYCLOOCTENE STABILITY” (Tagworks Pharmaceuticals B.V., priority 2018, published 2021).
Where a SMILES comes first, the peptide text is derived from it. [ ]: non-standard residue; d: D form. The star is where a group is joined. Dolaproine = CO[C@@H]([C@@H]1CCCN1)[C@@H](C)C(=O)O; Dil = CC[C@H](C)[C@H](NC)[C@@H](CC(=O)O)OC; X1 = C[C@@H](N*)[C@@H](O)c1ccccc1; NMeV = CN[C@H](C(=O)O)C(C)C

Columns and labels:
AVP0458-TCO-MMAE = assay: Tetrazine-induced MMAE release from diabody ADC (LC-SIM-MS, D8-MMAE standard); conditions: 37° C., 24 h, PBS/plasma (1/1), 10 equiv of tetrazine
Procedure: MMAE release from diabody ADC (AVP0458-TCO-MMAE) was determined by using a deuterated internal standard D8-MMAE. ADC (1.1×10^−10 moles bound MMAE) and D8-MMAE (1.1×10^−10 moles) and 10 equiv of tetrazine were incubated in 100 uL PBS/plasma (1/1) at 37° C. […] After vortexing, 10 min standing at −20° C. and centrifugation, the supernatants were separated from the protein pellets, diluted with five parts of PBS and the ratio MMAE/D8-MMAE was measured with LC-SIM-MS, affording the release yields (Table 3).

NIH:OVCAR-3 cells = assay: Cell proliferation (MTT) assay, NIH:OVCAR-3; assay type: cell-based, human; conditions: NIH:OVCAR-3, 72 h
Procedure: (§1) The human colon cancer LS174T cell line was cultured in RPMI-1640 medium supplemented with 2 mM glutamine and 10% heat inactivated fetal calf serum. The human ovary carcinoma NIH:OVCAR-3 cell line was cultured in RPMI-1640 medium supplemented with 1 mM sodium pyruvate, 10 mM HEPES, 2 mM glutamine, 10 pg/mL bovine insulin and 20% fetal calf serum. The LS174T and NIH:OVCAR-3 cells were plated in 96-well plates at a 5000 cells/well density 24 h prior to the experiment. […] After 72 h incubation at 37° C., cell proliferation was assessed by an MTT assay. The proliferation assay was performed in triplicate.

LS174T cells = assay: Cell proliferation (MTT) assay, LS174T; assay type: cell-based, human; conditions: 72 h
Procedure: as §1

| Compound | release (%), induced MMAE release from AVP0458-TCO-MMAE (AVP0458-TCO-MMAE) [%] | EC50 (NIH:OVCAR-3 cells) [nM] | EC50 (LS174T cells) [nM] |
| --- | --- | --- | --- |
| Cc1nnc(C)nn1 [Compound 2.1, 3,6-dimethyl-1,2,4,5-tetrazine] | 95 ± 0.4 | – | – |
| Cc1nnc(-c2ccc(NC(=O)CCCC(=O)NCCOCCOCCOCCOCCOCCOCCOCCOCCOCCOCCOCCNC(=O)CN3CCN(CC(=O)O)CCN(CC(=O)O)CCN(CC(=O)O)CC3)cn2)nn1 [Compound 3.4, 2,2′,2″-(10-(44-((6-(6-methyl-1,2,4,5-tetrazin-3-yl)pyridin-3-yl)amino)-2,40,44-trioxo-6,9,12,15,18,21,24,27,30,33,36-undecaoxa-3,39-diazatetratetracontyl)-1,4,7,10-tetraazacyclododecane-1,4,7-triyl)triacetic acid] | 47 ± 0.3 | – | – |
| Cc1nnc(-c2ncccn2)nn1 [Compound 4.1, 3-methyl-6-(pyrimidin-2-yl)-1,2,4,5-tetrazine] | 69 ± 0.0 | – | – |
| CN(CCc1nnc(-c2ncccn2)nn1)C(=O)CCCC(=O)NC(CO)(CO)CO [Compound 4.15] | 55 ± 0.4 | – | – |
| Cc1nnc(-c2nccc(CNC(=O)OC(C)(C)C)n2)nn1 [Compound 4.17] | 70 ± 0.1 | – | – |
| Cc1nnc(-c2cnccn2)nn1 [Compound 4.18] | 55 ± 0.8 | – | – |
| Cc1nnc(-c2ccncn2)nn1 [Compound 4.19] | 60 ± 0.1 | – | – |
| Cc1nnc(-c2nccnc2C)nn1 [Compound 4.20] | 59 ± 0.3 | – | – |
| Cc1nnc(-c2nccc(C(=O)O)n2)nn1 [Compound 4.23] | 69 ± 0.5 | – | – |
| Cc1nnc(-c2nccc(CNC(=O)CN(CCN(CC(=O)O)CC(=O)O)CC(=O)O)n2)nn1 [Compound 4.26] | 59 ± 0.6 | – | – |
| Cc1nnc(-c2nccc(CNC(=O)CCCC(=O)O)n2)nn1 [Compound 4.27] | 66 ± 0.5 | – | – |
| CC[C@H](C)[C@@H]([C@@H](CC(=O)N1CCC[C@H]1[C@H](OC)[C@@H](C)C(=O)N[C@H](C)[C@@H](O)c1ccccc1)OC)N(C)C(=O)[C@@H](NC(=O)[C@@H](NC)C(C)C)C(C)C [MMAE, Monomethyl auristatin E] (H-[NMeV]V[Dil][Dolaproine]-X1) | – | 0.039 | 0.277 |
